In PMC10101059, “Rational Design of Stapled Antimicrobial Peptides to Enhance Stability and In Vivo Potency against Polymicrobial Sepsis” (Microbiology Spectrum, 2023):
≈ marks a conversion by molar mass, not a printed value. Read-outs that look alike come from different tables or passages of the source. Bridge positions count the residues as written; N and C are the ends. Square brackets hold non-standard residues; d marks the D form. Peptide text beside a SMILES is read from it. R5 = C=CCCC[C@@](C)(N)C(=O)O

How the values were obtained:
E. aerogenes = test: microbe, parasite or virus in culture; format: cell-based, Enterobacter aerogenes; settings: for TP4-3 and meropenem combined MIC: MIC of each agent in combination; for MIC: read-out: Single drug treatment MIC
MDR A. baumannii 2982 = test: microbe, parasite or virus in culture; format: cell-based, Acinetobacter baumannii; settings: for MIC: read-out: Single drug treatment MIC; for TP4-3 and meropenem combined MIC: MIC of each agent in combination
Procedure: (§1) The FICI was measured using a standard checkerboard microdilution assay ([57]). Two-fold dilutions of antibiotics were made across the x axis, and two-fold peptide dilutions were made across the y axis. Next, bacteria were added at 5 × 10^5 CFU/well (A. baumannii), followed by incubation at 37 ± 2°C for 16 to 20 h. FIC indices were calculated according to the following equations: FICI = FIC1 + FIC2; FIC1 = (MIC12 combined)/MIC1; FIC2 = (MIC12 combined)/MIC2. The combined efficacy was estimated as follows: FICI ≤ 0.5, synergistic; 0.5 to 1, additive; 1 to 2, indifferent; ≥2, antagonistic.

MDR A. baumannii 2962 = test: microbe, parasite or virus in culture; format: cell-based, Acinetobacter baumannii; settings: for MIC: read-out: Single drug treatment MIC; for TP4-3 and meropenem combined MIC: MIC of each agent in combination
Procedure: as §1

MDR A. baumannii 1019 = test: microbe, parasite or virus in culture; format: cell-based, Acinetobacter baumannii; settings: for MIC: read-out: Single drug treatment MIC; for TP4-3 and meropenem combined MIC: MIC of each agent in combination
Procedure: as §1

MDR A. baumannii 14B001 = test: microbe, parasite or virus in culture; format: cell-based, Acinetobacter baumannii; settings: for MIC: read-out: Single drug treatment MIC; for TP4-3 and meropenem combined MIC: MIC of each agent in combination
Procedure: as §1

MDR A. baumannii 921 = test: microbe, parasite or virus in culture; format: cell-based, Acinetobacter baumannii; settings: for MIC: read-out: Single drug treatment MIC; for TP4-3 and meropenem combined MIC: MIC of each agent in combination
Procedure: as §1

MDR A. baumannii 1607 = test: microbe, parasite or virus in culture; format: cell-based, Acinetobacter baumannii; settings: for MIC: read-out: Single drug treatment MIC; for TP4-3 and meropenem combined MIC: MIC of each agent in combination
Procedure: as §1

MDR A. baumannii 1702 = test: microbe, parasite or virus in culture; format: cell-based, Acinetobacter baumannii; settings: for MIC: read-out: Single drug treatment MIC; for TP4-3 and meropenem combined MIC: MIC of each agent in combination
Procedure: as §1

Enterobacter aerogenes = test: microbe, parasite or virus in culture; format: cell-based
Procedure: (§2) The antimicrobial assay was performed according to a modified National Committee for Clinical Laboratory Standards (NCCLS) protocol ([41], [42]). Briefly, 5 × 10^5 CFU/mL bacterial cells were treated with various peptide concentrations and incubated at 37 ± 2°C for 16 to 20 h. The lowest concentration with clear wells was recorded as the MIC for each test molecule. The clear wells were further plated in Mueller-Hinton agar (MHA) plates, followed by incubation overnight at 37 ± 2°C. After plating, the lowest concentration at which no growth was observed was recorded as the MBC. For the serum sensitivity assay, the antimicrobial activity of the peptides was tested in medium containing 50% human serum ([43], [44]).

Pseudomonas aeruginosa = test: microbe, parasite or virus in culture; format: cell-based; settings: for MBC: read-out: MBC; for MIC: read-out: MIC
Procedure: as §2

Escherichia coli = test: microbe, parasite or virus in culture; format: cell-based
Procedure: as §2

[1] = test system: NDM-1 Klebsiella pneumoniae; test: microbe, parasite or virus in culture; format: cell-based
Procedure: as §2

A. baumannii biofilm = test: Biofilm inhibition assay; format: cell-based, Acinetobacter baumannii; settings: 0.5× to 4× MIC
Procedure: (i) Biofilm inhibition assay. Fifty μL of 2 × 10^6 CFU/mL A. baumannii bacterial suspension was added to a 96-well plate. Then, 50 μL of peptide/drug (various concentrations) was added, and the plate was incubated for 24 h. The residual solution was removed, and wells were washed, followed by treatment with 100% methanol for 15 min at room temperature. The methanol was then removed, and the wells were allowed to dry at room temperature. Next, the wells were incubated with 100 μL of 0.02% crystal violet for 30 min. After the incubation, the wells were washed with distilled water and dried for an appropriate length of time. Finally, 100 μL of 33% acetic acid was added to the wells for 1 h, followed by reading the absorbance at 595 nm ([55]).

[2] = test system: CLP-induced polymicrobial sepsis in C57BL/6 female mice; test: CLP-induced polymicrobial sepsis model; format: in vivo; settings: for kidney (BUN, CRE) and liver function (GOT, GPT): 24 h after CLP; for survival: 7 days post-operation, i.p. 30 min after CLP, TP4-3 9 mg/kg, meropenem 10 mg/kg, combination 9 mg/kg TP4-3 and 5 mg/kg meropenem, CLP + saline 12.5%
Procedure: (i) CLP surgery. Cecal ligation and puncture surgery was performed to induce polymicrobial sepsis according to a previously described method ([37]). Female C57BL/6 mice at 6 to 8 weeks of age (weight = 18 to 22 g) were anesthetized by intraperitoneal administration of Zoletil (50 mg/kg). Then, a 1-cm incision was made at the abdomen to expose the cecum. The CLP procedure was performed with a 23-G needle. […] A sham group was subjected to abdomen incision without CLP and treated with saline by intraperitoneal injection. After the treatments, percent survival was used as a measure of test-candidate efficacy ([37]).
(ii) Estimation of bacterial load, cytokine expression, and toxicity profile after CLP and treatment. […] Blood samples were taken in collection tubes. Peritoneal fluid was collected in a sterilized 1.5-mL centrifuge tube. Organs, including the liver, lung, spleen, and kidney, were harvested, weighed, and placed in 1-mL sterile PBS for homogenization with a tissue lyzer (Tissuelyzer II, Qiagen, Dusseldorf, Germany). The homogenates, blood, and peritoneal fluid were diluted serially and plated on Mueller-Hinton broth agar plates. The plates were incubated at 37°C overnight. Each tissue was evaluated by measuring CFU/g ([37]).
To evaluate kidney and liver function, blood samples (n = 5 per group) were tested for ALT (GPT), AST (GOT), CRE, and BUN using a dry-chemistry analyzer as described above. Mouse serum was extracted to assess (n = 5 per group) expression of cytokines (Thermo Fisher Scientific, Waltham, MA) as a measure of inflammatory response ([37]).

E. coli = test: microbe, parasite or virus in culture; format: cell-based, Escherichia coli; settings: for TP4-3 and meropenem combined MIC: MIC of each agent in combination; for MIC: read-out: Single drug treatment MIC
[3] = 24 h, ELISA, compared to saline-treated group
[4] = 72 h compared to 24 h after treatment
[5] = Klebsiella aerogenes, MHB medium
[6] = Pseudomonas aeruginosa, MHB medium
[7] = Escherichia coli, HS, 50% human serum containing MHB medium
[8] = HS, 50% human serum containing MHB medium
[9] = Klebsiella pneumoniae, MHB medium

## CC[C@H](C)[C@H](NC(=O)[C@@H](NC(=O)[C@@H](N)Cc1ccccc1)[C@@H](C)CC)C(=O)N[C@]1(C)CCCC=CCCC[C@](C)(C(=O)NCC(=O)N[C@@H](CC(C)C)C(=O)N[C@@H](Cc2ccccc2)C(=O)N[C@@H](CCCCN)C(=O)N[C@@H](CCCCN)C(=O)N[C@@H](CCCCN)C(=O)N[C@@H](C)C(=O)NCC(=O)N[C@@H](C)C(=O)N[C@]2(C)CCCC=CCCC[C@](C)(C(=O)N[C@H](C(=O)N[C@@H](CCCCN)C(=O)N[C@@H](CCCCN)C(=O)O)[C@@H](C)CC)NC(=O)[C@H](CCCCN)NC(=O)[C@H](CCCCN)NC(=O)[C@H](CCCCN)NC2=O)NC(=O)[C@H](CO)NC(=O)[C@H](CCCCN)NC(=O)[C@H](CCCCN)NC1=O [TP4-3] (H-FII[R5]KKS[R5]GLFKKKAGA[R5]KKK[R5]IKK-OH; staple 4-8, 18-22; N-terminus and C-terminus assumed)
E. aerogenes; TP4-3 and D
  TP4-3 and meropenem combined MIC: 3.13 µM
E. aerogenes; TP4-3 and M
  TP4-3 and meropenem combined MIC: 0.78 µM
E. aerogenes
  MIC: 25 µM (≈ 72.3 µg/mL)
MDR A. baumannii 2982; MDR 2982
  MIC: 6.25 µM
MDR A. baumannii 2982; TP4-3 and D
  TP4-3 and meropenem combined MIC: 3.13 µM
MDR A. baumannii 2982; TP4-3 and M
  TP4-3 and meropenem combined MIC: 3.13 µM
MDR A. baumannii 2962; MDR 2962
  MIC: 6.25 µM
MDR A. baumannii 2962; TP4-3 and D
  TP4-3 and meropenem combined MIC: 3.13 µM
MDR A. baumannii 2962; TP4-3 and M
  TP4-3 and meropenem combined MIC: 3.13 µM
MDR A. baumannii 1019; MDR 1019
  MIC: 12.5 µM
MDR A. baumannii 1019; TP4-3 and D
  TP4-3 and meropenem combined MIC: 3.13 µM
MDR A. baumannii 1019; TP4-3 and M
  TP4-3 and meropenem combined MIC: 3.13 µM
MDR A. baumannii 14B001; MDR 14B001
  MIC: 3.13 µM
MDR A. baumannii 14B001; TP4-3 and D
  TP4-3 and meropenem combined MIC: 3.13 µM
MDR A. baumannii 14B001; TP4-3 and M
  TP4-3 and meropenem combined MIC: 0.09 µM
MDR A. baumannii 921; MDR 921
  MIC: 6.25 µM
MDR A. baumannii 921; TP4-3 and D
  TP4-3 and meropenem combined MIC: 3.13 µM
MDR A. baumannii 921; TP4-3 and M
  TP4-3 and meropenem combined MIC: 0.78 µM
MDR A. baumannii 1607; MDR 1607
  MIC: 6.25 µM
MDR A. baumannii 1607; TP4-3 and D
  TP4-3 and meropenem combined MIC: 3.13 µM
MDR A. baumannii 1607; TP4-3 and M
  TP4-3 and meropenem combined MIC: 3.13 µM
MDR A. baumannii 1702; MDR 1702
  MIC: 6.25 µM
MDR A. baumannii 1702; TP4-3 and D
  TP4-3 and meropenem combined MIC: 3.13 µM
MDR A. baumannii 1702; TP4-3 and M
  TP4-3 and meropenem combined MIC: 3.13 µM
Enterobacter aerogenes
  MBC: 25 µM (≈ 72.3 µg/mL)
  MIC: 25 µM (≈ 72.3 µg/mL)
Pseudomonas aeruginosa
  MBC: 25 µM (≈ 72.3 µg/mL)
  MIC: 25 µM (≈ 72.3 µg/mL)
Escherichia coli
  MBC: 25 µM (≈ 72.3 µg/mL)
  MIC: 25 µM (≈ 72.3 µg/mL)
[1]; NDM-1
  MBC: 25 µM (≈ 72.3 µg/mL)
  MIC: 25 µM (≈ 72.3 µg/mL)
A. baumannii biofilm
  inhibition of biofilm (biomass) formation: substantial inhibition of biomass formation
[2]; [3]
  serum IL-6 level: lower levels
  serum IL-10 level: higher level
  serum IL-12 level: no difference
  serum IL-18 level: lower levels
  serum MCP-1 level: lower levels
  serum TNF-α level: lower levels
[2]
  kidney (BUN, CRE) and liver function (GOT, GPT): significantly improved
  survival: 87.5%
[2]; [4]
  bacterial burden in peritoneal lavage fluid: no significant difference
  decrease of bacterial burden, blood: 54%
  decrease of bacterial burden, kidney: 51%
  decrease of bacterial burden, liver: 61%
  decrease of bacterial burden, lung: 51%
  decrease of bacterial burden, spleen: 55%
[2]; 72 h post-treatment, compared to CLP + saline
  bacterial burdens in the blood, lung, and liver: lower bacterial burdens
E. coli; TP4-3 and D
  TP4-3 and meropenem combined MIC: 6.25 µM
E. coli; TP4-3 and M
  TP4-3 and meropenem combined MIC: 0.78 µM
E. coli
  MIC: 25 µM (≈ 72.3 µg/mL)

## C[C@@H](O)[C@H]1C(=O)N2C(C(=O)O)=C(S[C@@H]3CN[C@H](C(=O)N(C)C)C3)[C@H](C)[C@H]12 [Meropenem]
E. aerogenes; Klebsiella aerogenes
  MIC: 0.39 µM (≈ 0.15 µg/mL)
E. aerogenes; TP4-3 and M
  TP4-3 and meropenem combined MIC: 0.097 µM
MDR A. baumannii 2982; Acinetobacter baumannii
  MIC: 400 µM
MDR A. baumannii 2982; TP4-3 and M
  TP4-3 and meropenem combined MIC: 200 µM
MDR A. baumannii 2962; Acinetobacter baumannii
  MIC: 100 µM
MDR A. baumannii 2962; TP4-3 and M
  TP4-3 and meropenem combined MIC: 25 µM
MDR A. baumannii 1019; Acinetobacter baumannii
  MIC: 50 µM
MDR A. baumannii 1019; TP4-3 and M
  TP4-3 and meropenem combined MIC: 6.25 µM
MDR A. baumannii 14B001; Acinetobacter baumannii
  MIC: 800 µM
MDR A. baumannii 14B001; TP4-3 and M
  TP4-3 and meropenem combined MIC: 400 µM
MDR A. baumannii 921; Acinetobacter baumannii
  MIC: 400 µM
MDR A. baumannii 921; TP4-3 and M
  TP4-3 and meropenem combined MIC: 100 µM
MDR A. baumannii 1607; Acinetobacter baumannii
  MIC: 100 µM
MDR A. baumannii 1607; TP4-3 and M
  TP4-3 and meropenem combined MIC: 12.5 µM
MDR A. baumannii 1702; Acinetobacter baumannii
  MIC: 25 to 50 µM
MDR A. baumannii 1702; TP4-3 and M
  TP4-3 and meropenem combined MIC: 12.5 µM
Enterobacter aerogenes; [5]
  MBC: 0.39 µM (≈ 0.15 µg/mL)
  MIC: 0.39 µM (≈ 0.15 µg/mL)
Pseudomonas aeruginosa; Pseudomonas aeruginosa, HS, 50% human serum containing MHB medium
  MBC: 3.13 µM (≈ 1.2 µg/mL)
Pseudomonas aeruginosa; [6]
  MBC: 6.25 µM (≈ 2.4 µg/mL)
  MIC: 3.13 µM (≈ 1.2 µg/mL)
Pseudomonas aeruginosa
  MIC: 1.56 µM (≈ 0.598 µg/mL)
Escherichia coli; [7]
  MBC: 0.78 µM (≈ 0.299 µg/mL)
  MIC: 0.78 µM (≈ 0.299 µg/mL)
Escherichia coli; Escherichia coli, MHB medium
  MBC: 0.39 µM (≈ 0.15 µg/mL)
  MIC: 0.39 µM (≈ 0.15 µg/mL)
[1]; [8]
  MBC: >25 µM
  MIC: >25 µM
[1]; [9]
  MBC: > 25 µM
  MIC: > 25 µM
A. baumannii biofilm
  inhibition of biofilm (biomass) formation: substantial inhibition of biomass formation
[2]
  kidney (BUN, CRE) and liver function (GOT, GPT): poor liver function profiles
  survival: 37.5%
E. coli; Escherichia coli
  MIC: 3.13 µM (≈ 1.2 µg/mL)
E. coli; TP4-3 and M
  TP4-3 and meropenem combined MIC: 0.097 µM
